The text below walks through data of patent publication US20090209538A1, “THERAPEUTIC SUBSTITUTED LACTAMS” (ALLERGAN, INC., priority 2008, published 2009).

Entries after “also recorded” stand apart in the source; their conditions may differ.

In the assay the test system is patients having glaucoma (lashes and adjacent hairs). As to the kind of experiment: Clinical observation of lash and hair growth in glaucoma patients treated in one eye. The format is in vivo, humans. The following applies: glaucoma patients treated unilaterally; treated versus control areas. An excerpt:
In the course of treating patients having glaucoma, treatment may only be appropriate in one eye. […] The lash appearance on the lids of the treated eyes would have appeared quite attractive if it represented a bilateral phenomenon. As a result of its asymmetric nature, the long lashes on one side could be construed as disturbing from a cosmetic standpoint. A systemic examination was preformed as a result of the asymmetric phenomenon. It soon became apparent that this altered appearance was not an isolated finding. […] Definite differences could be identified to varying degrees in the lashes and adjacent hairs of all patients who were taking the drug on a unilateral basis for longer than 6 months.
The changes in the lashes were apparent on gross inspection in several patients once attention was focused on the issue. In those with light colored hair and lashes, the differences were only seen easily with the aid of the high magnification and lighting capabilities of the slit lamp biomicroscope. In the course of glaucoma follow-up examination, attention is generally immediately focused on the eye itself. As a result of the high power magnification needed only one eye is seen at a time and the eye is seen at a high enough power that the lashes are not in focus. […]

Consider `CCNC(=O)CCC/C=C\C[C@@H]1[C@@H](/C=C/[C@@H](O)CCc2ccccc2)[C@H](O)C[C@@H]1O` [bimatoprost], for which the “lash / hair growth in treated eye versus non-treated eye” value was “longer, thicker, and fuller in the treated eye than in the non-treated eye; also recorded: hair growth is stimulated”.
